The numbers were not newly measured in patent US20160231323A1, “PROTECTION OF TCR SIGNALING CHAINS IN CANCER PATIENTS AND ENHANCEMENT OF CAR-T CELL THERAPY” (Batu Biologics, Inc., priority 2015, published 2016), which cites them from elsewhere.

The test system of one data set is PGE 2. Particulars: several animal models.
The subject of a further data set is plasma CRP. As to conditions: 1000 mg/day for 2 months, healthy nonsmokers, versus vitamin E or placebo.
The subject of a further data set is tumors. As to conditions: paradoxical oxidative mechanism.
Data set [1] deals with proliferating tumor endothelial cells.
The test system of data set [2] is sepsis-induced immune suppression. Particulars: animals undergoing experimental sepsis.
Data set [3] concerns CD8(+) effector and effector memory T cells. Particulars: mice given vitamin C treated DC loaded with tumor lysate.
The subject of a further data set is HIF-1 alpha. As to conditions: results in suppressed angiogenic activity.
The next data set relates to TCR-ζ. As to conditions: addition to co-incubation of cancer patient neutrophils with healthy lymphocytes.
In data set [4] the test system is IFN-[…] and IL-2 production. Particulars: daily dose of 750 mg for 2 weeks, Duke's C and D colorectal cancer.
The test system of data set [5] is constitutively activated neutrophils.
For data set [6], the system named is markers of oxidative stress. As to conditions: smokers.
A further data set deals with Kaposi Sarcoma. As to conditions: oral administration.

As for `COc1ccc2c(c1)c(CC(=O)O)c(C)n2C(=O)c1ccc(Cl)cc1` [indomethacin], the metastatic progression entry in the data set with PGE 2 is recorded as “significantly impedes metastatic progession”.

As for `O=C1O[C@H]([C@@H](O)CO)C(O)=C1O` [ascorbic acid], the “plasma CRP levels” value in the data set with plasma CRP is “statistically significant decrease”. Further, the effect on tumors entry in the data set on tumors is reported as “direct killing effect”. For the same molecule, the “effect on proliferating tumor endothelial cells” value in data set [1] was “Direct suppression”. For the same molecule, in [2], the “immune suppression in experimental sepsis” value is recorded as “blocked immune suppression”. In data set [3] (versus control DC), the “frequency of effector and effector memory T cells” value is given as “higher frequency”. In addition, in [3] (versus controls), the “ex vivo killing of tumor cells by the T cells” value was “increased ex vivo killing effect”. Besides, in the data set with HIF-1 alpha, the “tumor expression of HIF-1 alpha” value is “reduce tumor expression of HIF-1 alpha”.

For catalase, in the data set with TCR-ζ, the TCR-ζ downregulation entry is given as “suppressed TCR-ζ downregulation”.

Take vitamin E: the “IFN-[…] and IL-2 production” value in data set [4] was “restoration of IFN-[…] and IL-2 production”.

With `CC(=O)N[C@@H](CS)C(=O)O` [n-acetylcysteine], the “clinical effect in sepsis” value in [5] (as a monotherapy) is on record as “little clinical effect”. For the same molecule, the “constitutively activated neutrophils in sepsis patients” value in [5] (therapeutic administration) is recorded as “suppression of the constitutively activated neutrophils”. Further, the “markers of oxidative stress” value in data set [6] is reported as “suppression of markers of oxidative stress”. Moreover, in data set [2], the “immune suppression in experimental sepsis” value was “blocked immune suppression”. Besides, in the data set on Kaposi Sarcoma, the angiogenesis result is on record as “blocks angiogenesis” and the “growth of Kaposi Sarcoma” value is on record as “suppresses growth of Kaposi Sarcoma”.
